Test results reported in patent publication US20200268864A1, “CANCER VACCINE COMPOSITIONS AND METHODS FOR USING SAME TO TREAT CANCER” (Dana-Farber Cancer Institute, Inc., priority 2017, published 2020).
Entries after “also recorded” stand apart in the source; their conditions may differ.

Columns and labels:
PD-L1 on PBM tumor cells = experiment: PD-L1 expression on PBM tumor cells (RT-qPCR, flow cytometry); parameters: species or system mouse; details: PBM tumors in vivo and cultured PBM cells
Procedure: Tumors were first mechanically disrupted by chopping, then chemically digested in collagenase buffer (8 mL DMEM, 0.1 mL 1M HEPES, 0.5 mL FBS, 0.2 mL Pen/Strep, 1 m, 10× collagenase/hyaluronidase (Stemcell Technologies), 0.2 mL of 1 mg/mL DNase I (Stemcell Technologies) at 37° C. for 45 min. Single-cell suspensions of spleen and lymph nodes were obtained by mashed through a 70 um strainer using the plunger of a 3 mL or 5 mL syringe. Single cells suspensions were treated with red blood lysis buffer (4 mL NH4Cl+1 mL PBS with 2% calf serum) and washed with FACS buffer. Single cells suspensions were incubated with LIVE/DEAD Fixable Aqua Dead Cell Stain (Life Technologies, Cat # L34965) for 30 min and then blocked with anti-CD16/32 (BioLegend, clone 93) for 20 min on ice. Samples were then incubated with appropriate antibodies for 30 min. on ice. The Foxp3 staining buffer set (eBioscience, Cat #00-5523-00) was applied for intracellular markers staining. For the intracellular cytokine analysis, cells were stimulated with Leukocyte Activation Cocktail (BD Biosciences, Cat #550583) at 37° C. for 5 hours prior to FACS staining. […] Flow cytometry was performed on an LSR II (BD Biosciences) or LSRFortessa™ HTS (BD Biosciences) at the DFCI flow cytometry core facility, and all the data were analyzed using FlowJo software. […]

PBM tumor-bearing mice = experiment: Flow cytometry of tumor-infiltrating immune cells in PBM tumors; details: mouse, in vivo
Procedure: Tumors were first mechanically disrupted by chopping, then chemically digested in collagenase buffer (8 mL DMEM, 0.1 mL 1M HEPES, 0.5 mL FBS, 0.2 mL Pen/Strep, 1 m, 10× collagenase/hyaluronidase (Stemcell Technologies), 0.2 mL of 1 mg/mL DNase I (Stemcell Technologies) at 37° C. for 45 min. Single-cell suspensions of spleen and lymph nodes were obtained by mashed through a 70 um strainer using the plunger of a 3 mL or 5 mL syringe. Single cells suspensions were treated with red blood lysis buffer (4 mL NH4Cl+1 mL PBS with 2% calf serum) and washed with FACS buffer. Single cells suspensions were incubated with LIVE/DEAD Fixable Aqua Dead Cell Stain (Life Technologies, Cat # L34965) for 30 min and then blocked with anti-CD16/32 (BioLegend, clone 93) for 20 min on ice. Samples were then incubated with appropriate antibodies for 30 min. on ice. The Foxp3 staining buffer set (eBioscience, Cat #00-5523-00) was applied for intracellular markers staining. For the intracellular cytokine analysis, cells were stimulated with Leukocyte Activation Cocktail (BD Biosciences, Cat #550583) at 37° C. for 5 hours prior to FACS staining. The following antibodies were used in the experiments and were purchased from BioLegend unless otherwise indicated: CD45 (clone 30-F11), TCRβ (clone H57-597), CD4 (clone RM4-5), CD8 (clone 53-6.7), CD44 (clone IM7), CD62L (MEL-14), CD25 (PC61), IFNγ (clone XMG1.2), TNFα(clone MP6-XT22), PD-1 (clone 29F.1A12), Tim-3 (clone RMT3-23), LAG-3 (clone C9B7W), CD11b (clone M1/70), CD11c (clone […]), F4/80 (clone BM8), Gr-1 (clone RB6-BC5), Ly-6C (clone HK1.4), Ly-6G (clone 1A8), MHCII (clone M5/114.15.2), CD80 (clone 16-10A1), CD86 (clone GL-1), MHC1 (clone KH114). FoxP3 (clone FJK-16 s; eBioscience), Phospho-IRF-3 (Ser396) (clone D6O1M, Cell signaling technology), Phospho-TBK1/NAK (Ser172) (clone D52C2, Cell signaling technology), and LIVE/DEAD® Fixable Aqua Dead Cell Stain Kit (Life Technologies Cat L34965). Flow cytometry was performed on an LSR II (BD Biosciences) or LSRFortessa™ HTS (BD Biosciences) at the DFCI flow cytometry core facility, and all the data were analyzed using FlowJo software.

PPM tumor bearing mice = experiment: Flow cytometry of tumor-infiltrating immune cells in PPM tumors; details: mouse, in vivo
Procedure: Tumors were first mechanically disrupted by chopping, then chemically digested in collagenase buffer (8 mL DMEM, 0.1 mL 1M HEPES, 0.5 mL FBS, 0.2 mL Pen/Strep, 1 m, 10× collagenase/hyaluronidase (Stemcell Technologies), 0.2 mL of 1 mg/mL DNase I (Stemcell Technologies) at 37° C. for 45 min. Single-cell suspensions of spleen and lymph nodes were obtained by mashed through a 70 um strainer using the plunger of a 3 mL or 5 mL syringe. Single cells suspensions were treated with red blood lysis buffer (4 mL NH4Cl+1 mL PBS with 2% calf serum) and washed with FACS buffer. Single cells suspensions were incubated with LIVE/DEAD Fixable Aqua Dead Cell Stain (Life Technologies, Cat # L34965) for 30 min and then blocked with anti-CD16/32 (BioLegend, clone 93) for 20 min on ice. Samples were then incubated with appropriate antibodies for 30 min. on ice. The Foxp3 staining buffer set (eBioscience, Cat #00-5523-00) was applied for intracellular markers staining. For the intracellular cytokine analysis, cells were stimulated with Leukocyte Activation Cocktail (BD Biosciences, Cat #550583) at 37° C. for 5 hours prior to FACS staining. […] Flow cytometry was performed on an LSR II (BD Biosciences) or LSRFortessa™ HTS (BD Biosciences) at the DFCI flow cytometry core facility, and all the data were analyzed using FlowJo software.

Brca1-null ID8 tumors = experiment: Subcutaneous Brca1-null ID8 tumors in WT or STING-KO mice; assay type: in vivo, mouse
Procedure: Single cells were obtained by digestion of primary ovarian tumors in collagenase buffer and then cultured in MOT media (DMEM/F12, 0.6% FBS, 10 ng/ml EGF, hydrocortisone 1 μg/ml, cholera toxin 1 ng/ml, 100 μg/ml penicillin-streptomycin, 5 μM Y27632). Tumor cells were transduced with lentiviral vector encoding luciferase (pLenti-blasticidin-luciferase) and then subjected to 3 days antibiotic selection with blasticidin 2 μg/ml. These luciferased tumors were transplanted orthotopically into syngeneic FVB/NJ mice to generated tumors for drug evaluation. Olaparib (AZD2281) was used by diluting 100 mg/ml stocks in DMSO with 10% 2-hydroxyl-propyl-β-cyclodextrine/PBS and administered daily by i.p. injection at dose of 50 mg/kg body weight. Mouse anti-PD-1 monoclonal antibody kindly provided by Gordon Freeman at DFCI was diluted in PBS (250 μg/100 μl/mouse) and injected by i.p. every 3 days. BX795 (Cat # HY-10514/CS-0259, MedChem Express) was prepared in DMSO (100 mg/ml) as stock solution and diluted in (25% PEG400+0.5% Tween)/PBS and administered daily by i.p. injection at dose of 30 mg/kg body weight. Anti-IFNAR1 antibody (Cat # BE0241; clone, MAR1-5A3; InVivoMab) was diluted in PBS (200 μg/100 μl/mouse) and injected by i.p. every 3 days. Tumor-bearing mice were equivalently divided into control and treatment groups according to the luminescent intensity. The endpoints were determined by tumor burden and ascites. For the CD8 depletion experiment, mice were injected intraperitoneally with anti-CD8 antibody (400 μg; clone YTS 169.4, BioXcell) 24 and 48 h before beginning olaparib treatment (50 mg/kg/day) and every 4 days thereafter.
Brca-1 deficient ID8 cells were generated using a CRISPR double nickase plasmid. […] Due to a lack of a reliable mouse BRCA1 antibody for Western blot, cells were analyzed by DNA sequencing to confirm the disruption of functional Brca1 allele. […]

`O=C(c1cc(Cc2n[nH]c(=O)c3ccccc23)ccc1F)N1CCN(C(=O)C2CC2)CC1` [olaparib, Olaparib] was tested, and the “expression of immune-inhibitory ligand PD-L1 on tumor cells” value (PD-L1 on PBM tumor cells) was “highly enhanced expression; also recorded: significantly increased expression”, the “CD80, CD86 and MHC class II expression on tumor associated DCs” value (PBM tumor-bearing mice) was “increased levels” and the “CD103+ DCs at the tumor site” value (PBM tumor-bearing mice) was “increased”. For the same compound, the “IFNγ and TNFα production by intratumoral CD4+ and CD8+ T cells” value (PBM tumor-bearing mice) was “significantly increased the production”, the “PD-1/TIM-3 and PD-1/Lag3 co-expression (exhausted state) on intratumoral CD8+ T cells” value (PBM tumor-bearing mice) was “reduced expression; also recorded: reduced the exhausted state” and the “effector CD8+ T cells in malignant ascites of the peritoneal cavity” value (PBM tumor-bearing mice) was “Increase”. For the same compound, the “frequency of intratumoral FoxP3+ Treg” value (PBM tumor-bearing mice) was “not changed”, the “immune cell (CD45+) infiltration into tumor” value (PBM tumor-bearing mice) was “Increased” and the “intratumoral MDSC cells (CD11b+Gr1+; gMDSC)” value (PBM tumor-bearing mice) was “reduced”. The “number of intratumoral CD4+ and CD8+ T cells” value (PBM tumor-bearing mice) was “significantly increased; also recorded: increased the number”, the “intratumoral MDSC cells (CD11b+Gr1+; gMDSC)” value (PBM tumor-bearing mice; listed as Olaparib) was “decrease” and the “intratumoral immune responses in PPM tumor bearing mice” value (PPM tumor bearing mice) was “not found”. The “tumor growth (tumor weights)” value (Brca1-null ID8 tumors; STING-KO hosts) was “little effect”, the “abundance of intratumoral p-TBK1+ DCs” value (Brca1-null ID8 tumors; WT host) was “increased abundance” and the “tumor growth (tumor weights)” value (Brca1-null ID8 tumors; WT mice) was “significantly inhibited the tumor growth”.
